Source: patent US6864093B1, “Method of identifying and treating invasive carcinomas” (University of Central Florida, priority 2000, dated 2005)

Columns and labels:
Assay type in all cases: cell-based, human
[1] = test system: prostasin gene promoter (MDA-MB-435s cells); assay: demethylation of prostasin gene promoter, genomic Southern blot; details: 500 nM, 8 days
Excerpt: (§1) High molecular weight genomic DNA was isolated from various cell lines as described in Chai, K X, Ward, D C, Chao, J, et al Molecular Clonings Sequence Analysis and Chromosomal Localization of the Human Protease Inhibitor 4 (kallistatin) gene (P14) Genomics 1994; 23:370-8. Genomic DNA frm each cell line was digested with the following restriction enzyme combinations:Xho I/BamH I (X/B), Xho I/BamH I/Hha (X/B/Hh), Xho I/BamH I/Aci I (X/B/A), Xho I/Bam H I.Bsa I (X/B/Bs),Xho I/Bam H I/Msp I(X/B/M) or Xho I/Bam H I/Hpa II(X/B/H) using 10 μg of DNA per digestion combination. The X/B cutting sites flank the CpG sies be to be investigated for differential methylation by the methylation-sensitive restriction endonucleases. The digests were resolved in a 0.8% agarose gel and analyzed by Southern blot hybridization as described in Chai, K X, Ward, D C, Chao, J et al. A nick translated prostasin promoter probe (bases 703-1,649) of the prostasin gene sequence, Genbank accession number U33446) was used for the hybridization. The base numbering of the prostasin gene sequence was described in Yu et al. […]

[2] = test system: prostasin mRNA (MDA-MB-231 cells); assay: reactivation of prostasin expression, RT-PCR/Southern blot; details: MDA-MB-231, 500 nM 5-aza-2′-dC 24 hr followed by 95% ethanol (solvent for TSA)
Experimental: (§2) Cells grown to 80% confluence (in […] tissue culture dish) were lysed directly with 1 ml of the Trizol Reagent (life Technologies) and RNA was isolated according to the manufacturer's protocol. The human prostasin-specific RT-PCR/Southern blot analysis was performed as described in Yu, J X, and Chao,J Molecular Cloning, tissue-specific expression and cellular localization of human prostasin mRNA. J Biol Chem 1995; 270:12483-4. One microgram of total RNA was used in the RT-PCR with 2 human prostasin gene-specific oligonucleotide primers, and a Southern blot of the resolved RT-PCR samples was probed with a third prostasin gene-specific oligonucleotide, detecting an amplified 232 bp fragment. A co-amplification of the β-actin mRNA for control of RNA quality and quantity was performed as described in Chen Hodge and Guarda, et al.
(§3) For demethylation of prostasin gene promoter, MDA-MB-231 and MDA-MB-435s cells were seeded in 100 mm dishes at an initial density of 50% confluence and cultured in the presence of 500 nM 5-aza-2′-deoxycytidine (5-aza-2′dC; Sigma-Aldrich) for 8 days with renewal of medium and 5-aza-2′-dC performed at 2 day intervals. Genomic DNA was then isolated for Southern blot analysis as described. For reactivation of prostasin expression, MDA-MB-231 and MDA-MB-435s cells were seeded in 60 mm dishes at 80% confluence and cultured in the presence of 500 nM 5-aza-2′-dC for 24 hr, and were then treated for an additional 24 hr with either 1 μM trichostatin A (TSA; Sigma Aldrich) or an equal volume of 95% ethanol used to dissolve TSA. For measuring time-dependence of prostatin gene reactivation, cells were treated as described above but were harvested at 6 or 12 hr after the addition of TSA. RNA was isolated for prostasin-specifric RT-PCR/Southern blot analysis as described. The MCF-7 and the MDA-MB-453 cell ines were subjected tot the same 5-aza-2′-dC/TSA treatment and prostasin RT-PCR Southern blot analysis procedures.

[3] = test system: prostasin mRNA (MDA-MB-435s cells); assay: as above
Experimental: as §2, §3

[4] = test system: prostasin mRNA (PC-3 cells); assay: as above; details: PC-3, after 8 days 5-aza-2′-dC
Experimental: as §2
(§4) Du-145 and […] an additional 24 hours with either 1 μM trichostatin A (TSA, Sigma-Aldrich Co.) or an equal volume of 95% ethanol used to dissolve TSA. TNA was isolated for prostasin-specific RT-PCR/Southern blot analysis as described in example 1.

[5] = test system: prostasin mRNA (DU-145 cells); assay: as above; details: DU-145, after 8 days 5-aza-2′-dC
Experimental: as §2, §4

[6] = test system: prostasin gene promoter (PC-3 cells); assay: demethylation of prostasin gene promoter, genomic Southern blot; details: PC-3, 8 days
Excerpt: as §1

[7] = test system: prostasin gene promoter (DU-145 cells); assay: as above; details: DU-145, 8 days
Excerpt: as §1

Nc1ncn([C@H]2C[C@H](O)[C@@H](CO)O2)c(=O)n1 [5-aza-2′-dC, 5-aza-2′-deoxycytidine]
demethylation of prostasin promoter-exon 1 region [1]: significant level of demethylation
prostasin mRNA re-expression [2]: did not result in prostasin mRNA re-expression
prostasin mRNA re-expression ([3]; 500 nM 5-aza-2′-dC 24 hr followed by 95% ethanol (solvent for TSA)): did not result in prostasin mRNA re-expression
prostasin mRNA expression ([3]; after 8-day 5-aza-2′-dC treatment): failed to detect prostasin mRNA expression
prostasin mRNA expression [4]: no prostasin mRNA expression was detected
prostasin mRNA expression [5]: no prostasin mRNA expression was detected
demethylation of prostasin promoter [6]: significant level of demethylation
demethylation of prostasin promoter [7]: significant level of demethylation
